Data: patent EP0045157A1, “Macrolide antibiotics, their preparation and veterinary compositions containing them” (ELI LILLY AND COMPANY, priority 1980, dated 1982)

Legend:
[1] = Electrometric titration (pKa); format: physicochemical; settings: electrometric titration in 66% aqueous dimethylformamide; read-out: pKa value of titratable group
Text: Electrometric titration of DOMM in 66% aqueous dimethylformamide indicates the presence of a titratable group with a pKa value of about 7.14.

Solubility = format: physicochemical; settings: water and most polar organic solvents (acetone, methanol, ethanol, chloroform, dimethylformamide, dimethyl sulfoxide)
Text: DOMM acid addition salts are more soluble in water than is DOMM base.

For `CCC1OC(=O)CC(O)C(C)C(OC2OC(C)C(OC3CC(C)(O)C(O)C(C)O3)C(N(C)C)C2O)C(CC=O)CC(C)C(=O)C=CC(C)=CC1COC1OC(C)C(O)C(O)C1O` (centres unmarked) [DOMM, 2"'-O-demethylmacrocin], the pKa [1] was roughly 7.14 and the solubility (Solubility) was “soluble in water and in most polar organic solvents”.
